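Cultured in 96-well plates, cells were exposed to test compound for 48 hours across five concentrations. The concentration for full growth arrest is given as TGI.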
How the values were obtained:
Assay in all cases: NCI-60 cell line screen, 48 h
A549 NSCLC = system: A549 NSCLC
CAKI-1 renal = system: CAKI-1 renal
CCRF-CEM leukemia = system: CCRF-CEM leukemia
COLO 205 colon = system: COLO 205 colon
DMS 273 small cell lung = system: DMS 273 small cell lung
EKVX NSCLC = system: EKVX NSCLC
HL-60(TB) leukemia = system: HL-60(TB) leukemia
HOP-92 NSCLC = system: HOP-92 NSCLC
K-562 leukemia = system: K-562 leukemia
KM20L2 colon = system: KM20L2 colon
M14 melanoma = system: M14 melanoma
RPMI-8226 leukemia = system: RPMI-8226 leukemia
RXF 393 renal = system: RXF 393 renal
SF-295 CNS = system: SF-295 CNS
SK-OV-3 ovarian = system: SK-OV-3 ovarian
SNB-75 CNS = system: SNB-75 CNS
SR leukemia = system: SR leukemia
U251 CNS = system: U251 CNS
UO-31 renal = system: UO-31 renal
OVCAR-3 ovarian = system: OVCAR-3 ovarian

Structure (SMILES) | TGI (A549 NSCLC) [µM] | TGI (CAKI-1 renal) [µM] | TGI (CCRF-CEM leukemia) [µM] | TGI (COLO 205 colon) [µM] | TGI (DMS 273 small cell lung) [µM] | TGI (EKVX NSCLC) [µM] | TGI (HL-60(TB) leukemia) [µM] | TGI (HOP-92 NSCLC) [µM] | TGI (K-562 leukemia) [µM] | TGI (KM20L2 colon) [µM] | TGI (M14 melanoma) [µM] | TGI (RPMI-8226 leukemia) [µM] | TGI (RXF 393 renal) [µM] | TGI (SF-295 CNS) [µM] | TGI (SK-OV-3 ovarian) [µM] | TGI (SNB-75 CNS) [µM] | TGI (SR leukemia) [µM] | TGI (U251 CNS) [µM] | TGI (UO-31 renal) [µM] | TGI (OVCAR-3 ovarian) [µM]
CC(=O)c1cccc(NC(=O)C(=O)C(C(=O)c2ccccc2F)C2OC(=O)c3ccccc32)c1 (centres undefined) | > 100 | > 100 | 49.6 | 41.9 | > 100 | > 100 | 64.8 | > 100 | > 100 | > 100 | > 100 | 87.9 | 70 | > 100 | > 100 | 76.3 | 54.9 | 53.2 | > 100 | –
CCOC(=O)C1=NN(c2ccccc2)C2=CC(C)=NN(C)C(=S)N21 | > 100 | > 100 | > 100 | > 100 | – | > 100 | > 100 | > 100 | > 100 | – | > 100 | > 100 | > 100 | > 100 | > 100 | > 100 | > 100 | > 100 | > 100 | > 100
Nc1nc(Cl)cc(NCCCCCCCCCCCCNc2cc(Cl)nc(N)n2)n1 | > 100 | – | > 100 | > 100 | 58 | > 100 | > 100 | 19.3 | > 100 | > 100 | > 100 | > 100 | 44.5 | 32.7 | > 100 | 34 | > 100 | 20.1 | > 100 | > 100
CC[C@](C)(O)C(=O)O[C@H]1C(=O)O[C@@H]2C[C@H]3C(C)=C[C@H](O)[C@@H](O)[C@]3(C)[C@H]3[C@@]4(O)OC[C@]32[C@@H]1[C@@H](C)[C@H]4O | 292 | 116 | 23.9 | 86.1 | 127 | 50.3 | 43.1 | 83.1 | 48.8 | 189 | – | 24.4 | 2.43 | 116 | 263 | 86.5 | – | 70.5 | 284 | 84.5

— PubChem BioAssay (NCI)
